Values of other authors in patent US5070187A, “Pharmacologically effective antagonists of arginine-vasopressin” (priority 1989, dated 1991).

Conditions: in vivo

## [8-arginine]-vasopressin
  urinary clearance relative to that occurring elsewhere in the body: less than 5%
